Here are results for 4 compounds from patent US8778727B2, “Method of manufacturing organic electroluminescence display device” (Canon Kabushiki Kaisha, priority 2011, dated 2014).

Series [1] in a line: Etching (dissolution) of deposited layers by IPA/water mixed solvent. The format is physicochemical. To be noted: IPA 60 wt %; for etching rate: deposited film. The source says: In the present invention, a larger etching rate means a higher dissolution rate. In addition, a larger etching rate means a higher solubility of a layer having a material of interest in the solvent (polar solvent).
FIG. 3 is a graph illustrating thickness changes in the compound 1 and the compound A2 over an etching time. Here, FIG. 3 illustrates the results of the etching of the respective layers when a mixed solvent obtained by mixing isopropyl alcohol (IPA) and water so that IPA may account for 60 wt % (hereinafter, sometimes referred to as “IPA/water mixed solvent”) is used as a solvent formed of a polar solvent.
When the etching rates of the respective layers are calculated with their etching conditions made identical to each other, the etching rate of the layer A is 0.008 nm/sec but the etching rate of the layer B is 0.87 nm/sec, that is, a ratio of the latter to the former is about 100.
Here, a ratio (n) between the etching rates of the organic compound layer (corresponding to the layer A) and the release layer (corresponding to the layer B) by the polar solvent can be represented like the following equation.
Performed next was a second processing step of removing a part of the release layer 30 with a mixed solvent obtained by mixing water and IPA so that an IPA concentration was 60 wt % to reduce the thickness of the release layer 30. It should be noted that as the etching rate of the compound (phenanthroline derivative represented by the formula (2)) constituting the release layer 30 in this example was 0.9 nm/sec, part of the release layer 30 was removed through immersion in the mixed solvent for 530 seconds so that the thinning was performed (FIG. 2M). As a result of the second processing step, the thickness of the release layer 30 became 20 nm. In addition, each release layer subjected to the thinning in the second processing step functions as the charge transport layer (electron transport layer) 23a, 23b, or 23c. Next, vacuum heating was performed at 80° C. so that the solvent remaining on the charge transport layer was removed.

A short description of series [2]: Solubility in IPA/water mixed solvent (FIG. 4). The format is physicochemical. Conditions: IPA concentration 80 wt %; per 1 g solvent. The source says: The solubility of a compound as a constituent material for each layer in the IPA/water mixed solvent varies depending on the weight ratio of IPA in the mixed solvent. FIG. 4 is a graph illustrating the solubilities of the compound 1 (condensed polycyclic hydrocarbon compound) and the compound A2 (heterocyclic compound) in the IPA/water mixed solvent (polar solvent). Here, in the graph of FIG. 4, the axis of abscissa indicates the weight percent concentration of IPA in the IPA/water mixed solvent, and the axis of ordinate indicates the amount of the condensed polycyclic hydrocarbon compound or heterocyclic compound to dissolve in 1 g of the solvent.

In series [1], `c1ccc(-c2cc(-c3ccccc3)cc(-c3cccc(-c4cccc(-c5ccc6c7ccccc7c7ccccc7c6c5)c4)c3)c2)cc1` [compound B1] returned an etching rate of 1.3 nm/s.
As to `CC1(C)c2cc(-c3ccc4ccc5cccc6ccc3c4c56)ccc2-c2ccc(-c3ccc4ccc5cccc6ccc3c4c56)cc21` [compound 1], the “amount dissolving in 1 g of the IPA/water mixed solvent” value in series [2] worked out at 5 µg. In addition, in series [1], the “thickness change over etching time (FIG. 3)” value is “nearly no thickness reduction” and the etching rate was 0.008 nm/s.
Turning to `CC1(C)c2ccccc2-c2ccc(-c3ccc4ccc5ccc(-c6ccc7c(c6)C(C)(C)c6ccccc6-7)nc5c4n3)cc21` [compound A2], the “amount dissolving in 1 g of the IPA/water mixed solvent” value in series [2] is 73 µg. Besides, in series [1], the “thickness change over etching time (FIG. 3)” value is “reduces over time” and the etching rate came out at 0.87 nm/s. Besides, the “ratio (n) of etching rate of release layer (layer B, compound A2) to organic compound layer (layer A, compound 1)” value in series [1] (identical etching conditions) is listed as “about 100”. This compound also returned an etching rate in series [1] (listed as formula (2)) of 0.9 nm/s.
In series [1], `O=C1c2ccccc2OC2C=CC(c3cccc(-c4cccc(-c5cc(-c6cccc(-c7ccccc7)c6)cc(-c6cccc(C7C=CC=CC7)c6)c5)c4)c3)=CC12` (stereo not shown) [compound C1] showed an etching rate of 1.5 nm/s.
